Results as given in PMC12771125, “Compounds Reducing Human Sperm Motility as Potential Nonhormonal Contraceptives Identified Using a High-Throughput Phenotypic Screening Platform” (ACS Omega, 2025).
Values after ≈ are worked out from the molar mass of the structure shown. Like-named read-outs stand apart in the source and are kept apart here.

Experiments:
[1] = tested on: human sperm; experiment: Reduction of sperm motility (RSM) high-throughput phenotypic assay; format: cell-based; conditions: for EC50: Homo sapiens, reduction of progressive sperm motility relative to control
Description: Using our previously established phenotypic human sperm motility screening platform, we screened a large subset (62,621 compounds) of one of our in-house diversity libraries (National Phenotypic Screening Centre (NPSC) Diversity Set) (Figure A,B). Briefly, human sperm are collected, isolated from semen, distributed into 384-well plates with test compounds, time-lapse images of sperm movement are recorded using a high-content imager, and progressive motility parameters are calculated using custom data analysis software. Sperm motility is complicated, and the mechanisms underpinning its regulation are not fully understood. Progressive motility, which is a measurement of the movement of forward progression of sperm, is most closely linked to sperm quality, and the percentage of progressively motile sperm compared to control is therefore the parameter utilized during the work described in this paper. […]
We used an HTS screening platform to assess the motility of live human spermatozoa. The platform and its development are described in detail in Gruber et al. , and summarized below in brief. The platform was used to screen compound libraries specifically focusing on reduction in motility. Interesting compounds were examined in further detail as possible starting points for a medicinal chemistry program. The experimental design is illustrated in Figure .
Donors were local to the Dundee area, over the age of 18, and had no known fertility problems and normal sperm concentration, motility and semen characteristics according to WHO 2021 criteria. Special category personal data for donors, such as ethnic origin, was not recorded in accordance with ethical approval and UK GDPR. Samples were obtained by masturbation, after sexual abstinence of 2–5 days, and delivered to the research laboratory within one h of production. Samples were allowed to liquefy at 37 °C for 15–30 min prior to preparation by discontinuous density gradient centrifugation (DGC). […] A minimum of 3 prepared donor samples were routinely pooled to reduce donor-to-donor variability for primary screening assays. Pooled samples were incubated for 3 h at 37 °C under noncapacitating conditions.
In brief, screening batches of cells were transferred to a robotic platform (HighRes Biosolutions Inc.) and maintained during the screen at 37 °C at 5% CO2. Assay-ready 384-well plates containing compounds were prepared prior to the screen and filled with approximately 10,000 spermatozoa (20 μL) per well using a liquid handling system (MultiDrop Combi; ThermoFisher). These plates were incubated for 10 min prior to imaging. The HTS system utilized a Yokogawa CV7000 Cell Voyager high-throughput microscope to record time-lapse images from 2 positions in each well. An adaptation of a tracking algorithm, Trackpy v0.4.1 was utilized to track individual spermatozoa within each well and obtain kinematic parameters. Within the compound-test plates, DMSO was used as the vehicle control.
All steps were performed as previously described. , In summary, data from every compound well were normalized to those from in-plate DMSO controls (wells containing the same amount of DMSO as compound wells). Two positions were recorded in every well, and the average of those positions was used for calculating % of control (median value/DMSO median) × 100. Each plate contained 16 DMSO control wells. Median curvilinear velocity (VCL) was used as the primary readout for the NPSC Diversity Set screened at 6 μM, and percentage progressive motility (PM) was used for all other libraries screened. Hits from the primary screening were chosen based on the % change compared to the control. In these experiments, an RSM of ≥20% compared to negative controls (DMSO) was chosen as a cutoff for potential progression.
In a screening program of this scale, a significant number of compounds are likely to have a negative effect on sperm motility, but a number will show general toxicity. […]

[2] = Aqueous solubility; format: physicochemical
[3] = tested on: HepG2 cells; experiment: HepG2 cytotoxicity assay (resazurin, 72 h); format: cell-based, human; conditions: Homo sapiens, HepG2, 72 h; read-out: HepG2 pEC50 (converted)
Excerpt: Our overarching aims for investigating our chemical series and deciding which ones had the potential for further progression were to achieve adequate potency in our motility assay, suitable solubility, and minimal cytotoxicity in HepG2 cells. This third point was often the most challenging, as multiple series had cytotoxicity in HepG2 cells. This observation is perhaps not surprising; many potential targets in sperm cells can also be found in somatic cells. Our cytotoxicity assay is run with an incubation time of 72 h, to give time for gross cytotoxic effects to become apparent.
Compound dilution curves were plated directly using a Labcyte Echo 550 acoustic dispenser (125 nL) in 384-well white clear-bottom plates (Greiner). HepG2 cells (ATCCHepG2 HB-8065) were cultured in minimum essential medium (supplemented with glutamax) with 10% FCS and plated (25 μL) using a WellMate dispenser ([…]) and incubated for 72 h. Doxorubicin was used as a positive control drug. Resazurin was then added to each well at a final concentration of 45 μM, and fluorescence was measured using a PHERAstar LS (BMG Labtech) after 4 h of further incubation (excitation of 528 nm and emission of 590 nm). Raw data were normalized to controls and expressed as % growth.
Figure S2: Concentration-response curves from high throughput HepG2 viability assay. Each compound was tested in duplicate and the curves of each replicate are shown. The reported values in the tables are an average of the 2 pEC50 values obtained. […]
determine 0% effect, positive control used to determine 100% effect).
Hit compounds 1a, 6b and 7a were repurchased from commercial suppliers including enamine and […]

[4] = 10 min, 10 min incubation, reported <X (neg. log of top concentration) if largest reduction <70%, read-out: RSM pEC50 10 mins (converted)
[5] = 3 h incubation, reported <X if largest reduction <70%, read-out: RSM pEC50 3 hrs (converted)
[6] = 6 h incubation, reported <X if largest reduction <70%, read-out: RSM pEC50 6 hrs (converted)

Compound: Cc1sc(NC(=O)Nc2ccc(F)cc2F)nc1-c1ccccn1 [Compound 3m]
- difference between pEC50 in the sperm motility assay and pEC50 in the HepG2 cytotoxicity assay [1]: less than 1 log units
- EC50 [1, 4]: > 31.6 µM
- EC50 [1, 5]: 15.8 µM
- EC50 [1, 6]: 2 µM
- solubility [2]: 0.38 µM (≈ 0.132 µg/mL)
- EC50 [3]: 12.6 µM

Compound: CC(=O)Nc1nc2c(Cl)c(Cl)ccc2s1 [Compound 4a, N-(4,5-Dichlorobenzo[d]thiazol-2-yl)acetamide]
- difference between pEC50 in the sperm motility assay and pEC50 in the HepG2 cytotoxicity assay [1]: ~1 log units
- EC50 [1, 4]: 12.6 µM
- EC50 [1, 5]: 5.01 µM
- EC50 [1, 6]: 3.98 µM
- solubility [2]: 200 µM (≈ 52.2 µg/mL)
- EC50 [3]: 50.1 µM

Compound: Nc1nc2c(Cl)c(Cl)ccc2s1 [Compound 4b]
- EC50 [1, 4]: > 31.6 µM
- EC50 [1, 5]: > 31.6 µM
- EC50 [1, 6]: > 31.6 µM
- solubility [2]: 60 µM (≈ 13.1 µg/mL)
- EC50 [3]: 50.1 µM

Compound: CC(C)C(=O)Nc1nc2c(Cl)c(Cl)ccc2s1 [Compound 4c]
- EC50 [1, 4]: 10 µM
- EC50 [1, 5]: 6.31 µM
- EC50 [1, 6]: 5.01 µM
- solubility [2]: 18 µM (≈ 5.21 µg/mL)
- EC50 [3]: 50.1 µM

Compound: O=C(Nc1nc2c(Cl)c(Cl)ccc2s1)C1CC1 [Compound 4d]
- EC50 [1, 4]: 10 µM
- EC50 [1, 5]: 3.98 µM
- EC50 [1, 6]: 3.98 µM
- solubility [2]: 12 µM (≈ 3.45 µg/mL)
- EC50 [3]: 50.1 µM

Compound: CC(C)CC(=O)Nc1nc2c(Cl)c(Cl)ccc2s1 [Compound 4e]
- EC50 [1, 4]: > 31.6 µM
- EC50 [1, 5]: 6.31 µM
- EC50 [1, 6]: 6.31 µM
- solubility [2]: 4.5 µM (≈ 1.36 µg/mL)
- EC50 [3]: > 100 µM

Compound: O=C(Nc1nc2c(Cl)c(Cl)ccc2s1)C1CCCC1 [Compound 4f]
- EC50 [1, 4]: 10 µM
- EC50 [1, 5]: 5.01 µM
- EC50 [1, 6]: 3.98 µM
- solubility [2]: 4.2 µM (≈ 1.32 µg/mL)
- EC50 [3]: 50.1 µM

Compound: O=C(Nc1nc2c(Cl)c(Cl)ccc2s1)c1ccccc1 [Compound 4g]
- EC50 [1, 4]: 10 µM
- EC50 [1, 5]: 3.98 µM
- EC50 [1, 6]: 3.98 µM
- solubility [2]: 0.6 µM (≈ 0.194 µg/mL)
- EC50 [3]: 100 µM

Compound: NC(=O)Nc1nc2c(Cl)c(Cl)ccc2s1 [Compound 4h]
- EC50 [1, 4]: > 31.6 µM
- EC50 [1, 5]: > 31.6 µM
- EC50 [1, 6]: > 31.6 µM
- solubility [2]: 190 µM (≈ 49.8 µg/mL)
- EC50 [3]: 63.1 µM

Compound: O=C(Nc1nc2c(Cl)cccc2s1)C1CC1 [Compound 4i]
- EC50 [1, 4]: > 31.6 µM
- EC50 [1, 5]: > 31.6 µM
- EC50 [1, 6]: > 31.6 µM
- solubility [2]: 5.1 µM (≈ 1.29 µg/mL)
- EC50 [3]: > 100 µM

Compound: O=C(Nc1nc2cc(Cl)ccc2s1)C1CC1 [Compound 4j]
- EC50 [1, 4]: > 31.6 µM
- EC50 [1, 5]: > 31.6 µM
- EC50 [1, 6]: > 31.6 µM
- solubility [2]: 3.4 µM (≈ 0.859 µg/mL)
- EC50 [3]: > 100 µM

Compound: O=C(Nc1nc2c(F)c(F)ccc2s1)C1CC1 [Compound 4k]
- EC50 [1, 4]: > 31.6 µM
- EC50 [1, 5]: > 31.6 µM
- EC50 [1, 6]: > 31.6 µM
- solubility [2]: 8.5 µM (≈ 2.16 µg/mL)
- EC50 [3]: > 100 µM

Compound: O=C(Nc1nc2cc(F)c(F)cc2s1)C1CC1 [Compound 4l]
- EC50 [1, 4]: > 31.6 µM
- EC50 [1, 5]: > 31.6 µM
- EC50 [1, 6]: > 31.6 µM
- solubility [2]: 4 µM (≈ 1.02 µg/mL)
- EC50 [3]: > 100 µM

Compound: Cc1ccc2sc(NC(=O)C3CC3)nc2c1C [Compound 4m]
- EC50 [1, 4]: > 31.6 µM
- EC50 [1, 5]: > 31.6 µM
- EC50 [1, 6]: > 31.6 µM
- solubility [2]: 5.5 µM (≈ 1.35 µg/mL)
- EC50 [3]: > 100 µM

Compound: CCN(CC)C(=O)c1cc(Nc2ccnc3cc(Cl)ccc23)ccc1O [Compound 5d]
- EC50 [1, 4]: > 31.6 µM
- EC50 [1, 5]: > 31.6 µM
- EC50 [1, 6]: > 31.6 µM
- solubility [2]: 4.9 µM (≈ 1.81 µg/mL)
- EC50 [3]: > 100 µM

Compound: Oc1ccc(Nc2ccnc3cc(Cl)ccc23)cc1 [Compound 5e]
- EC50 [1, 4]: > 31.6 µM
- EC50 [1, 5]: > 31.6 µM
- EC50 [1, 6]: 0.316 µM
- solubility [2]: 3.5 µM (≈ 0.948 µg/mL)
- EC50 [3]: 79.4 µM

Compound: OC1CCC(Nc2ccnc3cc(Cl)ccc23)CC1 (stereo not drawn) [Compound 5f]
- EC50 [1, 4]: > 31.6 µM
- EC50 [1, 5]: > 31.6 µM
- EC50 [1, 6]: > 31.6 µM
- solubility [2]: 210 µM (≈ 58.1 µg/mL)
- EC50 [3]: > 100 µM

Compound: COc1ccc(Nc2ccnc3cc(Cl)ccc23)cc1 [Compound 5g]
- EC50 [1, 4]: > 31.6 µM
- EC50 [1, 5]: > 31.6 µM
- EC50 [1, 6]: > 31.6 µM
- solubility [2]: 4.9 µM (≈ 1.4 µg/mL)
- EC50 [3]: > 100 µM

Compound: Oc1ccc(Nc2ccnc3cc(Cl)ccc23)cn1 [Compound 5i]
- EC50 [1, 4]: > 31.6 µM
- EC50 [1, 5]: > 31.6 µM
- EC50 [1, 6]: > 31.6 µM
- solubility [2]: 220 µM (≈ 59.8 µg/mL)
- EC50 [3]: > 100 µM

Compound: Oc1ccc(Nc2ccnc3cc(Cl)ccc23)nc1 [Compound 5j]
- EC50 [1, 4]: > 31.6 µM
- EC50 [1, 5]: > 31.6 µM
- EC50 [1, 6]: > 31.6 µM
- solubility [2]: 6.7 µM (≈ 1.82 µg/mL)
- EC50 [3]: > 100 µM

Compound: Clc1ccc2c(Nc3ccc4[nH]ccc4c3)ccnc2c1 [Compound 5k]
- EC50 [1, 4]: > 31.6 µM
- EC50 [1, 5]: > 31.6 µM
- EC50 [1, 6]: > 31.6 µM
- solubility [2]: 11 µM (≈ 3.23 µg/mL)
- EC50 [3]: 12.6 µM

Compound: Cc1ccc(Nc2cc(C)nn2-c2nc(C)cc(C)n2)cc1 [Compound 6b, 1-(4,6-Dimethylpyrimidin-2-yl)-3-methyl-N-(p-tolyl)-1H-pyrazol-5-amine]
- EC50 [1, 4]: > 31.6 µM
- EC50 [1, 5]: > 31.6 µM
- EC50 [1, 6]: 1.58 µM
- solubility [2]: 1.1 µM (≈ 0.323 µg/mL)
- EC50 [3]: > 100 µM

Compound: Cc1cc(Nc2ccccc2)n(-c2ccccc2)n1 [Compound 6c]
- EC50 [1, 4]: > 31.6 µM
- EC50 [1, 5]: > 31.6 µM
- EC50 [1, 6]: > 31.6 µM
- solubility [2]: 81 µM (≈ 20.2 µg/mL)
- EC50 [3]: > 100 µM
